Data published in ChEMBL document CHEMBL1201862, “PubChem BioAssay data set” (2004).
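How tested: cells in 96-well plates exposed to compound for 48 hours at five concentrations. GI50 marks 50% less growth.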 The source made the active and inactive calls. Cut-off read from the data, not from the text of the source: active = GI50 up to about 1.1 µM and inactive = higher.

Legend:
Assay in all cases: DTP human tumour cell line panel, 48 h
U-251 = tested on: U-251
KM12 = tested on: KM12
SK-MEL-2 = tested on: SK-MEL-2
EKVX = tested on: EKVX
CCRF-CEM = tested on: CCRF-CEM
SK-OV-3 = tested on: SK-OV-3
NCI-H460 = tested on: NCI-H460
Malme-3M = tested on: Malme-3M
SF-268 = tested on: SF-268
LOX IMVI = tested on: LOX IMVI
HCT-15 = tested on: HCT-15
OVCAR-8 = tested on: OVCAR-8
UACC-257 = tested on: UACC-257
UO-31 = tested on: UO-31
IGROV-1 = tested on: IGROV-1
HL-60 = tested on: HL-60
SNB-19 = tested on: SNB-19
TK-10 = tested on: TK-10
HOP-62 = tested on: HOP-62
RXF 393 = tested on: RXF 393

SMILES	GI50 (U-251)	GI50 (KM12)	GI50 (SK-MEL-2)	GI50 (EKVX)	GI50 (CCRF-CEM)	GI50 (SK-OV-3)	GI50 (NCI-H460)	GI50 (Malme-3M)	GI50 (SF-268)	GI50 (LOX IMVI)	GI50 (HCT-15) [µM]	GI50 (OVCAR-8)	GI50 (UACC-257)	GI50 (UO-31)	GI50 (IGROV-1)	GI50 (HL-60)	GI50 (SNB-19)	GI50 (TK-10)	GI50 (HOP-62)	GI50 (RXF 393)
COc1c2c(c(O)c3c4c(c(C)cc13)C1OC3(C(OC)OC5CC(C)(O)C(OC6CC(C)(O)C(O)C(C)O6)C(C)O5)OC1C(OC)(O4)C31CO1)C(=O)C(O)CC2OC1CC(C)(O)C(OC(C)=O)C(C)O1 (stereo not given)	< 0.01 µM (active)	< 0.01 µM (active)	< 0.01 µM (active)	< 0.01 µM (active)	< 0.01 µM (active)	< 0.01 µM (active)	< 0.01 µM (active)	< 0.01 µM (active)	< 0.01 µM (active)	< 0.01 µM (active)	0.0767	< 0.01 µM (active)	< 0.01 µM (active)	0.0356 µM (active)	< 0.01 µM (active)	< 0.01 µM (active)	< 0.01 µM (active)	< 0.01 µM (active)	< 0.01 µM (active)	< 0.01 µM (active)
CC(=O)OCCCCn1cnc2nc(Nc3ccccc3)nc(Cl)c21	> 100 µM (inactive)	91.4 µM (inactive)	> 100 µM (inactive)	> 100 µM (inactive)	78.2 µM (inactive)	97.3 µM (inactive)	> 100 µM (inactive)	83.4 µM (inactive)	> 100 µM (inactive)	67.5 µM (inactive)	73.1	> 100 µM (inactive)	58.7 µM (inactive)	40.6 µM (inactive)	> 100 µM (inactive)	> 100 µM (inactive)	> 100 µM (inactive)	> 100 µM (inactive)	62.7 µM (inactive)	68.7 µM (inactive)
CCN(CC)CC(=N)N(CC)c1ccccc1	> 100 µM (inactive)	> 100 µM (inactive)	> 100 µM (inactive)	> 100 µM (inactive)	> 100 µM (inactive)	> 100 µM (inactive)	> 100 µM (inactive)	> 100 µM (inactive)	> 100 µM (inactive)	> 100 µM (inactive)	> 100	> 100 µM (inactive)	43.6 µM (inactive)	> 100 µM (inactive)	> 100 µM (inactive)	> 100 µM (inactive)	> 100 µM (inactive)	> 100 µM (inactive)	> 100 µM (inactive)	> 100 µM (inactive)
COc1cc(C2c3cc4c(cc3OC(N3CCCCC3)C2C)OCO4)cc(OC)c1OC (stereo not given)	3.2 µM (inactive)	2.88 µM (inactive)	3.45 µM (inactive)	10.3 µM (inactive)	2.84 µM (inactive)	2.77 µM (inactive)	3.52 µM (inactive)	5.83 µM (inactive)	9.02 µM (inactive)	4.85 µM (inactive)	3.65	5.11 µM (inactive)	12.3 µM (inactive)	5.02 µM (inactive)	4.62 µM (inactive)	2.33 µM (inactive)	3.24 µM (inactive)	7.71 µM (inactive)	2.85 µM (inactive)	2.15 µM (inactive)
c1ccc2c(c1)SC1Sc3ccccc3[S+]21 (stereo not given)	20.6 µM (inactive)	16.4 µM (inactive)	34.8 µM (inactive)	22 µM (inactive)	16.5 µM (inactive)	> 100 µM (inactive)	29.5 µM (inactive)	2.98 µM (inactive)	18.5 µM (inactive)	18.5 µM (inactive)	> 49.9	21.5 µM (inactive)	17.3 µM (inactive)	20.8 µM (inactive)	22 µM (inactive)	19.8 µM (inactive)	> 81.1 µM (inactive)	18.4 µM (inactive)	31.6 µM (inactive)	> 45.1 µM (inactive)
CC1CCC(O)/C=C/C(=O)OC(C)C(O)/C=C/C(=O)O1 (stereo not given)	> 100 µM (inactive)	> 100 µM (inactive)	> 100 µM (inactive)	> 100 µM (inactive)	25.4 µM (inactive)	> 100 µM (inactive)	> 100 µM (inactive)	> 100 µM (inactive)	> 100 µM (inactive)	> 100 µM (inactive)	> 94	> 100 µM (inactive)	> 100 µM (inactive)	> 100 µM (inactive)	> 100 µM (inactive)	37.2 µM (inactive)	> 100 µM (inactive)	> 83.8 µM (inactive)	> 100 µM (inactive)	> 62.1 µM (inactive)
Cc1c2cc[n+](C)cc2c(C)c2c1[nH]c1ccc(O)cc12 [ELLIPTINIUM ACETATE]	1.32 µM (inactive)	2.53 µM (inactive)	66.2 µM (inactive)	38.2 µM (inactive)	4.82 µM (inactive)	46.5 µM (inactive)	0.228 µM (active)	1.75 µM (inactive)	0.369 µM (active)	31 µM (inactive)	50.4	11.6 µM (inactive)	64 µM (inactive)	17.7 µM (inactive)	16.6 µM (inactive)	19 µM (inactive)	0.904 µM (active)	68.2 µM (inactive)	4.06 µM (inactive)	62.5 µM (inactive)
